Measurements published in article PMC7955072 (Nature Communications, 2021).
Values after ≈ are worked out from the molar mass of the structure shown. Values joined by “and” are separate entries in the source; they are usually repeats but may differ in a detail not shown here. Identical values can stand only once. “Also recorded” adds a separate entry of the source.

Key:
[1] = system: protein translation in rabbit reticulocyte lysate; experiment: In vitro translation assay of luciferase mRNA in rabbit reticulocyte lysate; settings: replicates I-III
Protocol: (§1) After incubating at 30 °C for 1.5 h, 2.5 μL of the reaction was transferred to a 384-well plate and mixed with 25 μL of Luciferase Assay Reagent (Promega). The luminescence was read on a FlexStation 3 multimode microplate reader (Molecular Devices).

[2] = system: protein translation in rabbit reticulocyte lysate; experiment: Rescue of RM-A-inhibited in vitro translation by C-terminal truncated human IleRS or its variants; settings: 200 nM RM-A; 3 μM C-terminal truncated human IleRS R459A
Protocol: as §1

[3] = system: ovarian cancer and prostate cancer growth; settings: cited from earlier work
[4] = system: other AARS family members (LeuRS, ValRS); settings: cited from earlier work
osteoclasts (OCs) = settings: cited from earlier work
[5] = cited from earlier work
Candida albicans = system: Candida albicans; set-up: method as in PMID 1429226; settings: pH 3.0; cited from earlier work
[6] = system: protein translation in rabbit reticulocyte lysate; experiment: Rescue of RM-A-inhibited in vitro translation by C-terminal truncated ScIleRS or its variants; settings: for Luciferase luminescence, 200 nM RM-A: replicates I-III
Protocol: as §1

[7] = system: ScIleRS Thr571 to Tyr or Arg variants; experiment: TSA, ScIleRS with Thr571 mutated to Tyr or Arg; type: binding, Saccharomyces cerevisiae
Protocol: The binding of RM-A to IleRS and the impact of intermediate analogue (Ile-AMS, MedChemExpress) or substrates on binding were evaluated by the fluorescence-based thermal shift assay (TSA). Ligand binding usually stabilizes the protein during the thermal denaturation process, and tighter binding usually causes a larger positive shift in the protein melting temperature (Tm)[45]. Briefly, mixtures with a final volume of 20 μL containing 150 mM NaCl, 100 mM HEPES (pH 7.5), 10% glycerol, 5 mM DTT, 2 μg of IleRS, 4× SYPRO orange fluorescence dye (Sigma-Aldrich) and different ligands (50 μM RM-A, 2 mM L-isoleucine, 2 mM ATP, or 50 μM Ile-AMS) were prepared in 96-well plates. The mixtures were incubated at 25 °C for 10 min and then heated from 25 °C to 95 °C at a rate of 1 °C/min. The fluorescence intensity was recorded by a StepOnePlus Real-Time PCR instrument (Life Technologies), and the maximums of the first derivatives were determined to calculate Tm values. Each Tm value was an average of triple assays.

Compound: CCCC[C@@]1(OC(=O)CCC(=O)O)CC[C@]2(CC[C@H](C)[C@@H](C/C=C(C)/C=C/[C@H](O)[C@@H](C)/C=C/C(=O)O)O2)O[C@H]1/C=C/C(C)=C/C(=O)O [RM-A, reveromycin A]
- Luminescence (in vitro protein translation) ([1]; RM-A Conc 2 nM): 190845 and 181490 and 183251
- Luminescence (in vitro protein translation) ([1]; RM-A Conc 8 nM): 186149 and 190937 and 185903
- Luminescence (in vitro protein translation) ([1]; RM-A Conc 20 nM): 175716 and 187102 and 188453
- Luminescence (in vitro protein translation) ([1]; RM-A Conc 40 nM): 163497 and 184611 and 167689
- Luminescence (in vitro protein translation) ([1]; RM-A Conc 80 nM): 7616.05 and 18001.9 and 7173.32
- Luminescence (in vitro protein translation) ([1]; RM-A Conc 200 nM): 0 and 17.007 and 33.997
- Luminescence (in vitro protein translation) ([1]; RM-A Conc 800 nM): 17.076 and 8.503 and 25.498
- Luminescence (in vitro protein translation) ([1]; RM-A Conc 4000 nM): 0 (2×) and 50.995
- protein translation rescued [2]: about 1%
- ovarian cancer and prostate cancer growth in vivo [3]: inhibit
- inhibition of other AARS family members (LeuRS, ValRS) [4]: insensitive; also recorded: does not show significant inhibition
- apoptosis of osteoclasts (OCs) (osteoclasts (OCs)): potently induce the apoptosis
- more cytotoxic to OCs than to other types of cells, including OC progenitor cells (osteoclasts (OCs)): at least 100 times
- bone loss in ovariectomized mice [5]: suppress bone loss
- MIC (Candida albicans): 3 µM (≈ 1.98 µg/mL)
- protein translation rescued ([6]; 200 nM RM-A, 3 μM C-terminal truncated ScIleRS variant with 600GRKMSKSLK608 replaced by -GSGS-): approximately 80%
- Luciferase luminescence, 200 nM RM-A ([6]; 1 μM LeuRS (control)): 27.35 and 44.205 and 52.747
- Luciferase luminescence, 200 nM RM-A ([6]; 1 μM ScIleRS D527A): 63.694 and 45.571 and 34.895
- Luciferase luminescence, 200 nM RM-A ([6]; 1 μM ScIleRS F48A): 235.026 and 174.094 and 121.866
- Luciferase luminescence, 200 nM RM-A ([6]; 1 μM ScIleRS F48Y): 90.991 and 72.914 and 115.108
- Luciferase luminescence, 200 nM RM-A ([6]; 1 μM ScIleRS F191A): 156.784 and 298.475 and 281.964
- Luciferase luminescence, 200 nM RM-A ([6]; 1 μM ScIleRS P90A): 35.934 and 81.508 and 9.028
- Luciferase luminescence, 200 nM RM-A ([6]; 1 μM ScIleRS R454A): 2038.19 and 7956.68 and 7915.89
- Luciferase luminescence, 200 nM RM-A ([6]; 1 μM ScIleRS R460A): 63.694 and 82.028 and 79.355
- Luciferase luminescence, 200 nM RM-A ([6]; 1 μM ScIleRS R462A): 219.125 and 149.005 and 122.71
- Luciferase luminescence, 200 nM RM-A ([6]; 1 μM ScIleRS T572A): 2721.39 and 8649.69 and 8296.21
- Luciferase luminescence, 200 nM RM-A ([6]; 1 μM ScIleRS V89A): 11067.8 and 10750 and 22533.8
- Luciferase luminescence, 200 nM RM-A ([6]; 1 μM ScIleRS W402A): 203.886 and 487.005 and 223.56
- Luciferase luminescence, 200 nM RM-A ([6]; 1 μM ScIleRS W456A): 72.793 and 72.914 and 17.634
- Luciferase luminescence, 200 nM RM-A ([6]; 1 μM ScIleRS W529A): 72.281 and 54.7 and 8.724
- Luciferase luminescence, 200 nM RM-A ([6]; 1 μM ScIleRS Y571A): 36.141 and 88.172 and 61.066
- Luciferase luminescence, 200 nM RM-A ([6]; 1 μM ScIleRS del_KMSKS): 1832.65 and 1584.88 and 8043.93
- Luciferase luminescence, 200 nM RM-A ([6]; 3 μM C-terminal truncated ScIleRS Wild-type): 109159 and 108773 and 113203
- Luciferase luminescence, 200 nM RM-A ([6]; 3 μM LeuRS (control)): 68.753
- Luciferase luminescence, 200 nM RM-A ([6]; 3 μM ScIleRS D527A): 8750.65 and 7744.02 and 12892
- Luciferase luminescence, 200 nM RM-A ([6]; 3 μM ScIleRS F48A): 2036.32 and 2422.33 and 1991.71
- Luciferase luminescence, 200 nM RM-A ([6]; 3 μM ScIleRS F48Y): 94.913 and 96.194 and 77.119
- Luciferase luminescence, 200 nM RM-A ([6]; 3 μM ScIleRS F191A): 75050.4 and 67335.6 and 51978.3
- Luciferase luminescence, 200 nM RM-A ([6]; 3 μM ScIleRS P90A): 99 and 117.664 and 109.334
- Luciferase luminescence, 200 nM RM-A ([6]; 3 μM ScIleRS R454A): 116437 and 113410 and 111486
- Luciferase luminescence, 200 nM RM-A ([6]; 3 μM ScIleRS R460A): 1567.03 and 1752.95 and 2655.99
- Luciferase luminescence, 200 nM RM-A ([6]; 3 μM ScIleRS R462A): 27718.3 and 25034.8 and 41655.4
- Luciferase luminescence, 200 nM RM-A ([6]; 3 μM ScIleRS T572A): 111134 and 106950 and 105037
- Luciferase luminescence, 200 nM RM-A ([6]; 3 μM ScIleRS V89A): 100692 and 113636 and 118400
- Luciferase luminescence, 200 nM RM-A ([6]; 3 μM ScIleRS W402A): 50779.2 and 51210.1 and 59141.2
- Luciferase luminescence, 200 nM RM-A ([6]; 3 μM ScIleRS W449A): 115488 and 110666 and 106192
- Luciferase luminescence, 200 nM RM-A ([6]; 3 μM ScIleRS W456A): 51.771 and 96.194 and 77.119
- Luciferase luminescence, 200 nM RM-A ([6]; 3 μM ScIleRS W529A): 60.194 and 17.229 and 34.495
- Luciferase luminescence, 200 nM RM-A ([6]; 3 μM ScIleRS Y571A): 11774.7 and 10611.3 and 9010.55
- Luciferase luminescence, 200 nM RM-A ([6]; 3 μM ScIleRS del_KMSKS): 101448 and 100214 and 102556
- binding of RM-A to ScIleRS variant (TSA) [7]: blocked the binding
